Source: article PMC9549030, “Structural basis for specific inhibition of the deubiquitinase UCHL1” (Nature Communications, 2022)
Where “and” joins values, the source holds several entries; their conditions need not be identical. Identical values can stand only once. Like-named read-outs stand apart in the source and are kept apart here.

Assays:
UCHL1 [1] = molecular target: T1, UCHL1 (Homo sapiens, UniProt P09936); assay: Ub-Rhodamine (Ubiquitin rhodamine cleavage) assay; format: biochemical; details: 1 h preincubation; for remaining activity at 0.000610352 µM: compound 0.610352 nM; for remaining activity at 0.0012207 µM: compound 1.2207 nM; for remaining activity at 0.00244141 µM: compound 2.44141 nM; for remaining activity at 0.00488281 µM: compound 4.88281 nM; for remaining activity at 0.00976562 µM: compound 9.76562 nM; for remaining activity at 0.0195312 µM: compound 19.5312 nM; for remaining activity at 0.0390625 µM: compound 39.0625 nM; for remaining activity at 0.078125 µM: compound 78.125 nM; for remaining activity at 0.15625 µM: compound 156.25 nM; for remaining activity at 0.3125 µM: compound 312.5 nM; for remaining activity at 0.625 µM: compound 625 nM; for remaining activity at 1.25 µM: compound 1250 nM; for remaining activity at 2.5 µM: compound 2500 nM; for remaining activity at 5 µM: compound 5000 nM; for remaining activity at 10 µM: compound 10000 nM; for remaining activity at 0.00050402 µM: compound 0.50402 nM; for remaining activity at 0.00151206 µM: compound 1.51206 nM; for remaining activity at 0.00453618 µM: compound 4.53618 nM; for remaining activity at 0.0136085 µM: compound 13.6085 nM; for remaining activity at 0.0408257 µM: compound 40.8257 nM; for remaining activity at 0.122477 µM: compound 122.477 nM; for remaining activity at 0.367431 µM: compound 367.431 nM; for remaining activity at 1.10229 µM: compound 1102.29 nM; for remaining activity at 3.30688 µM: compound 3306.88 nM; for remaining activity at 30.581 µM: compound 30581 nM; for remaining activity at 100 µM: compound 100000 nM
T1 sequence (P09936 1-223): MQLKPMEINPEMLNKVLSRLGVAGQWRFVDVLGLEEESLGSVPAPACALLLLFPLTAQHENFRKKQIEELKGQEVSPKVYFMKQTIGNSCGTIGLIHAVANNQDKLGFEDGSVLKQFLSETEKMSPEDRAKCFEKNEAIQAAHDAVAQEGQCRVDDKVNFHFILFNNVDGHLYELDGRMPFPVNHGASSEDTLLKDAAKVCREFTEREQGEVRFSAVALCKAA

UCHL1 [2] = molecular target: T1, UCHL1; assay: Thermal shift assay; format: binding; details: UCHL1 1 µM, 1 h, replicates
Protocol: Reactions were performed in white 96-well PCR plates (Bio-Rad). UCHL1 was diluted in thermal shift buffer (1x PBS, 5 mM DTT) to a 4x concentration of 4 µM. The protein was then mixed with 4x compound dissolved in thermal shift buffer in a 1:1 ratio. To each well was added 20 µL of DUB-Inhibitor solution, followed by 1 h incubation time. To each well was then added 20 µL 4x SYPRO Orange in thermal shift buffer. After sealing the plates with a transparent film, thermal denaturation (gradient: 20–90 °C; Increment: 0.3 °C, hold for 5 s before read) was performed and monitored by a Bio-Rad Connect cycler.

UCHL1 in HEK293 cells = system: T2, UCHL1 in HEK293 cells; assay: Cellular Ub-probe (HA-Ub-VS) competition, inhibition of cellular UCHL1; format: cell-based, human
T2 construct: Western blot analysis of endogenous UCHL1 labeled with HA-Ub-VS after treatment of HEK293 cells; endogenous in cells; host or cells: HEK293
Protocol: Proteins were transferred to a polyvinylidene fluoride (PVDF, only experiments in Fig. 4e and Supplementary Fig. 7e, f) or nitrocellulose (all other experiments) membrane using a Trans-Blot Turbo system (Bio-Rad, 1.3 A, 25 V, 10 min). The membranes were blocked with 5% (m/v) nonfat milk in PBS-T buffer and incubated with indicated primary antibodies (anti-UCHL1, 1:1000, Cell Signaling, D3T2E; anti-PARK7, 1:1000, Cell Signaling, D29E5; anti-Tubulin, 1:4000, Sigma, T6199; anti-Hemagglutinin, 1:1000, BioLegend, 16B12; anti-flag, 1:2000, Sigma, F3165; anti-Ubiquitin, 1:1000, Cell Signaling, P4D1; anti-Ubiquitin, 1:300, Santa Cruz, P4D1, sc-8017; anti-UCHL3, 1:1000, Proteintech, 12384-1-AP) overnight. Then the membranes were incubated with the respective secondary antibody (anti-mouse,1:5000, Sigma, NXA931; anti-rabbit, 1:5000, Sigma, GENA934) coupled to horseradish peroxidase. The chemiluminescent reaction was initiated using a Clarity Western ECL substrate (Bio-Rad) and images were taken on a ChemiDoc MP Imaging System (Bio-Rad).
The total protein concentration was adjusted to 2 mg/ml by diluting each sample with ABP lysis buffer. A final concentration of 1 µM HA-Ub-VS probe was added, followed by incubation for 30 min at 37 °C. The labeling reaction was quenched by the addition of 4x LDS sample buffer. The samples were separated via SDS-PAGE and further analyzed via western blotting as described above.

UCHL1 [3] = molecular target: T1, UCHL1; assay: Identification of probe-labeled proteins with mass spectrometry (pulldown enrichment); details: HEK293 cells; 1 µM; 24 h
Protocol: Cells were cultured, treated with a compound, and lysed as described above. The cell lysate was diluted to a protein concentration of 2 mg/mL with ABP lysis buffer. 1 µL of each click reagent (see above) were added to each sample, followed by an incubation period of one hour at room temperature with protection from light. The sample volume was adjusted to 1000 µL with PBS and 30 µL of a NeutrAvidin (Thermo Fisher) bead slurry (prewashed 3x with PBS) were added to each sample. The samples were incubated for one hour to overnight on a rotator at 15 rpm at 4 °C. Beads were pelleted by centrifugation, the supernatant was discarded, and the beads were washed six times (1x with ½x lysis buffer, followed by five washes with PBS). After removing the washing solution completely, the beads were subjected to reduction with dithiothreitol (1 mM), alkylation with chloroacetamide (5 mM) and on-bead digestion with first LysC (Serva Biotech, 1 h, 37 °C), followed by trypsin (Sigma Aldrich, 1 h, overnight). Tryptic peptides were desalted with C18 StageTips and analyzed by nano-HPLC-MS/MS.
An Ultimate 3000 RSLC nano-HPLC system and a Hybrid-Orbitrap mass spectrometer (Q Exactive Plus) equipped with a nano-spray source (Thermo Fisher Scientific) was used. The protein fragments were enriched on a C18 PepMap 100 column (5 μm, 100 Å, 300 μm ID * 5 mm, Dionex) using 0.1% TFA, at a flow rate of 30 μL/min, for 5 min and separated on a C18 PepMap 100 column (3 μm, 100 Å, 75 μm ID × 50 cm) using a linear gradient (5–30% ACN/H2O + 0.1% formic acid over 90 min) with a flow rate of 300 nL/min. […] Signals in the mass range of m/z 300 to 1650 were acquired at a resolution of 70,000 for the full scan, followed by ten high-energy collision-dissociation (HCD) MS/MS scans of the most intense at least doubly charged ions at a resolution of 17,500. Proteins were relatively quantified by using MaxQuant[60] v.2.0.3.1, including the Andromeda search algorithm and searching the Homo sapiens reference proteome of the UniProt database. Briefly, an MS/MS ion search was performed for enzymatic trypsin cleavage, allowing two missed cleavages. Carbamidomethylation was set as a fixed protein modification, and oxidation of methionine and acetylation of the N-terminus were set as variable modifications. The mass accuracy was set to 20 parts per million (ppm) for the first search and to 4.5 ppm for the second search. The false discovery rates for peptide and protein identification were set to 0.01. Only proteins for which at least two peptides were quantified were chosen for further validation. Relative quantification of proteins was performed by using the label-free quantification algorithm implemented in MaxQuant. Statistical data analysis of pulldown samples was performed using Perseus[61] v.1.6.15.0, including proteins which were identified in at least four of the five biological replicates which were used per condition. Label-free quantification (LFQ) intensities were log-transformed (log2); replicate samples were grouped together. Pairwise comparisons of groups were performed separately. Missing values were imputed using small normally distributed values (width 0.3, downshift 1.8) and a two-sided t-test (s0 = 5, FDR = 0.001) was performed.

DUBs in HEK293 lysate = assay: Activity-based protein profiling in the lysate with Ub-VS competition; format: binding, human; details: 1 µM, 1 h
Protocol: Cells (4 × 10^6) were seeded in 10 cm dishes and grown to 90% confluency. The medium was aspirated, cells were washed with ice-cold PBS, treated with 600 µL ABP lysis buffer (1% (v/v) IGEPAL, 50 mM Tris, 150 mM NaCl, 5% glycerol, pH 8, cOmplete protease inhibitor cocktail), and incubated on ice for 15 min. The lysed cells were scrapped off the dish, cleared by centrifugation, and the protein concentration was determined via a Bradford assay. […] Each compound was diluted to a 2x concentration in PBS buffer from a 10 mM stock in DMSO (final concentration: 1 µM). Then each compound dilution or a DMSO dilution was mixed with cell lysate and incubated for one hour at room temperature. […] Samples were resolved by SDS-PAGE using a 4–12% Bis-Tris gel (Invitrogen, NuPAGE) with MES SDS running buffer for 50 min at 180 V. Fluorescence was read out using the Alexa564 (λex/em 520–545/577–613 nm, for TAMRA) and Alexa680 (λex/em 650–675/700–730 nm, for the PageRuler Prestained NIR Protein Ladder (Thermo Scientific)) channels on a ChemiDoc MP Imaging System (Bio-Rad).

[4] = mean ± SD of independent experiments, read-out: IC50 (UCHL1)
[5] = read-out: UCHL1 activity, data point mean
[6] = source data Fig. 3b, read-out: Averaged IC50s from independent experiments (single experiments)

SMILES | IC50 (UCHL1 [1]; read-out: IC50 (UCHL1)) | melting temperature (Tm) of UCHL1 (UCHL1 [2]; compound 1.25 µM) | melting temperature (Tm) of UCHL1 (UCHL1 [2]; compound 2.5 µM) | melting temperature (Tm) of UCHL1 (UCHL1 [2]; compound 5 µM) | DUB engagement (Ub-VS competitive labeling) (DUBs in HEK293 lysate) | remaining activity at 0.00050402 µM (UCHL1 [1]; [5]) | remaining activity at 0.00151206 µM (UCHL1 [1]; [5]) | remaining activity at 0.00453618 µM (UCHL1 [1]; [5]) | remaining activity at 0.0136085 µM (UCHL1 [1]; [5]) | remaining activity at 0.0408257 µM (UCHL1 [1]; [5]) | remaining activity at 0.122477 µM (UCHL1 [1]; [5]) | remaining activity at 0.367431 µM (UCHL1 [1]; [5]) | remaining activity at 1.10229 µM (UCHL1 [1]; [5]) | remaining activity at 3.30688 µM (UCHL1 [1]; [5]) | remaining activity at 30.581 µM (UCHL1 [1]; [5]) | remaining activity at 100 µM (UCHL1 [1]; [5]) | further results
C#CCCCNC(=O)c1ccc(-n2cnc(NC(=O)[C@@H]3CCN(C#N)C3)c2)cc1 [GK13R] | 2000 nM | 53.1 and 53.4 | 53.7 and 53.4 | 54 and 54.6 |  |  |  |  |  |  |  |  |  |  |  |  | IC50 (UCHL1 [1]; [4]): 2090 ± 164 nM; remaining activity at 0.000305176 µM (UCHL1 [1]; compound 0.305176 nM, read-out: UCHL1 activity, data point mean): 103%; remaining activity at 0.000610352 µM (UCHL1 [1]; [5]): 98.3%; remaining activity at 0.0012207 µM (UCHL1 [1]; [5]): 99.2%; remaining activity at 0.00244141 µM (UCHL1 [1]; [5]): 99.4%; remaining activity at 0.00488281 µM (UCHL1 [1]; [5]): 97.8%; remaining activity at 0.00976562 µM (UCHL1 [1]; [5]): 96.8%; remaining activity at 0.0195312 µM (UCHL1 [1]; [5]): 95.9%; remaining activity at 0.0390625 µM (UCHL1 [1]; [5]): 98.3%; remaining activity at 0.078125 µM (UCHL1 [1]; [5]): 93.7%; remaining activity at 0.15625 µM (UCHL1 [1]; [5]): 88%; remaining activity at 0.3125 µM (UCHL1 [1]; [5]): 80.6%; remaining activity at 0.625 µM (UCHL1 [1]; [5]): 70.3%; remaining activity at 1.25 µM (UCHL1 [1]; [5]): 52.9%; remaining activity at 2.5 µM (UCHL1 [1]; [5]): 34.3%; remaining activity at 5 µM (UCHL1 [1]; [5]): 13.6%; remaining activity at 10 µM (UCHL1 [1]; [5]): 3.56%; IC50 (UCHL1 [1]; [6]): 2210 nM and 1980 nM; inhibition of cellular UCHL1 (UCHL1 in HEK293 cells; HEK293 cells, 24 h): complete inhibition of UCHL1; change in log2 enrichment values of UCHL1, GK13S vs GK13R (UCHL1 [3]): 2
C#CCn1cc(-c2ccc(C(=O)N[C@@H]3CCN(C#N)C3)c(F)c2)cn1 [CG50R] |  |  |  |  | did not show DUB engagement |  |  |  |  |  |  |  |  |  |  |  | 
C#CCCCNC(=O)[C@@H]1CCN(C#N)C1 [GK16R] | > 100000 nM | 53.4 and 53.1 | 53.1 and 53.4 | 53.4 and 53.1 |  | 91.8% | 91.4% | 89.6% | 96.6% | 94.5% | 93.7% | 92.4% | 91.5% | 89% | 83.6% | 80.5% | 
C#CCCC(=O)NCc1ccc(-c2cccc(Oc3ccnc(C#N)n3)c2)cc1 [CG017] |  |  |  |  | did not show any covalent-irreversibly bound proteins at all |  |  |  |  |  |  |  |  |  |  |  | 
C#CCCCNC(=O)c1ccc(-n2cnc(NC(=O)[C@@H]3CCNC3)c2)cc1 [GK12R] | > 100000 nM | 53.4 and 52.8 and 53.1 | 53.4 | 53.1 |  | 95.8% | 97.9% | 98% | 94.4% | 95.3% | 95.6% | 94.6% | 95.5% | 94.2% | 93.5% | 99.1% | 
C#CCCCNC(=O)c1ccc(-n2cnc(NC(=O)[C@H]3CCNC3)c2)cc1 [GK12S] | > 100000 nM | 53.4 and 53.1 | 53.4 | 53.4 and 53.1 |  | 91.5% | 91.7% | 90.7% | 97.1% | 88.7% | 91.4% | 92.8% | 91.5% | 88.8% | 90.9% | 101% | 
COCCNC(=O)c1ccc(-n2cnc(NC(=O)[C@H]3CCN(C#N)C3)c2)cc1 [Cpd158, reference compound] |  | 59.4 | 59.4 | 59.1 and 59.4 |  |  |  |  |  |  |  |  |  |  |  |  | remaining activity at 0.000610352 µM (UCHL1 [1]; [5]): 96.9%; remaining activity at 0.0012207 µM (UCHL1 [1]; [5]): 97.3%; remaining activity at 0.00244141 µM (UCHL1 [1]; [5]): 95.8%; remaining activity at 0.00488281 µM (UCHL1 [1]; [5]): 91.1%; remaining activity at 0.00976562 µM (UCHL1 [1]; [5]): 90.7%; remaining activity at 0.0195312 µM (UCHL1 [1]; [5]): 86.9%; remaining activity at 0.0390625 µM (UCHL1 [1]; [5]): 82%; remaining activity at 0.078125 µM (UCHL1 [1]; [5]): 76.7%; remaining activity at 0.15625 µM (UCHL1 [1]; [5]): 62.5%; remaining activity at 0.3125 µM (UCHL1 [1]; [5]): 34.6%; remaining activity at 0.625 µM (UCHL1 [1]; [5]): 14.3%; remaining activity at 1.25 µM (UCHL1 [1]; [5]): 4.23%; remaining activity at 2.5 µM (UCHL1 [1]; [5]): 2.34%; remaining activity at 5 µM (UCHL1 [1]; [5]): 1.97%; remaining activity at 10 µM (UCHL1 [1]; [5]): 1.42%; IC50 (UCHL1 [1]; [6]): 222 nM and 36 nM and 129 nM and 153 nM and 104 nM; inhibition of cellular UCHL1 (UCHL1 in HEK293 cells; HEK293 cells, 1 and 5 µM, 1 h and 24 h (Supplementary Fig. 5f)): time- and concentration-dependent inhibition
C#CCCC(=O)Nc1cccc(/C=C/c2ccc3c(C#N)c(N)[nH]c3c2)c1 [CG041] |  |  |  |  | did not show any covalent-irreversibly bound proteins at all |  |  |  |  |  |  |  |  |  |  |  | 
N#CN1CCC[C@H]1C(=O)N1CCc2c(-c3ccnc4[nH]ccc34)cccc21 [Cpd117, reference compound] |  |  |  |  |  |  |  |  |  |  |  |  |  |  |  |  | IC50 (UCHL1 [1]; [4]): 9 ± 3 nM; inhibition of cellular UCHL1 (UCHL1 in HEK293 cells; after 1 h (Supplementary Fig. 5f)): very low degree of inhibition; inhibition of cellular UCHL1 (UCHL1 in HEK293 cells; after 24 h incubation (Supplementary Fig. 5f)): no inhibition of cellular UCHL1 at all
C#CCN1CCN(CCOc2ccc(C(CCC)NC(=O)/C(C#N)=C/c3cccc(Br)n3)cc2)CC1 (stereo not drawn) [MS037] |  |  |  |  | did not show DUB engagement |  |  |  |  |  |  |  |  |  |  |  | 
